# From patent publication US7820711B2, “Uses of selective inhibitors of HDAC8 for treatment of T-cell proliferative disorders” (Pharmacyclics Inc., priority 2006, dated 2010)
# T1: HDAC-8 (Homo sapiens, UniProt Q9BY41)
# T1 sequence (Q9BY41 1-377): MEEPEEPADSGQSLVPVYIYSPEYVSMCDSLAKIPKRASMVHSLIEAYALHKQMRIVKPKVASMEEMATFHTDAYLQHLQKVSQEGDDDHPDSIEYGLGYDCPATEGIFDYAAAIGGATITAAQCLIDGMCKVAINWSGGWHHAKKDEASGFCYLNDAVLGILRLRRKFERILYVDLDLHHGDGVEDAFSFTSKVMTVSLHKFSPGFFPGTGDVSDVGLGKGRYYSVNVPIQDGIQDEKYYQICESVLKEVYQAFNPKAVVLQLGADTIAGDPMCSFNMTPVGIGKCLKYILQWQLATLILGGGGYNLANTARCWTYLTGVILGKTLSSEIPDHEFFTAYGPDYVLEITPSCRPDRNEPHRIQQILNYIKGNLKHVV
# T2: HDAC-6 (Homo sapiens, UniProt Q9UBN7)
# T2 sequence (Q9UBN7 1-1215): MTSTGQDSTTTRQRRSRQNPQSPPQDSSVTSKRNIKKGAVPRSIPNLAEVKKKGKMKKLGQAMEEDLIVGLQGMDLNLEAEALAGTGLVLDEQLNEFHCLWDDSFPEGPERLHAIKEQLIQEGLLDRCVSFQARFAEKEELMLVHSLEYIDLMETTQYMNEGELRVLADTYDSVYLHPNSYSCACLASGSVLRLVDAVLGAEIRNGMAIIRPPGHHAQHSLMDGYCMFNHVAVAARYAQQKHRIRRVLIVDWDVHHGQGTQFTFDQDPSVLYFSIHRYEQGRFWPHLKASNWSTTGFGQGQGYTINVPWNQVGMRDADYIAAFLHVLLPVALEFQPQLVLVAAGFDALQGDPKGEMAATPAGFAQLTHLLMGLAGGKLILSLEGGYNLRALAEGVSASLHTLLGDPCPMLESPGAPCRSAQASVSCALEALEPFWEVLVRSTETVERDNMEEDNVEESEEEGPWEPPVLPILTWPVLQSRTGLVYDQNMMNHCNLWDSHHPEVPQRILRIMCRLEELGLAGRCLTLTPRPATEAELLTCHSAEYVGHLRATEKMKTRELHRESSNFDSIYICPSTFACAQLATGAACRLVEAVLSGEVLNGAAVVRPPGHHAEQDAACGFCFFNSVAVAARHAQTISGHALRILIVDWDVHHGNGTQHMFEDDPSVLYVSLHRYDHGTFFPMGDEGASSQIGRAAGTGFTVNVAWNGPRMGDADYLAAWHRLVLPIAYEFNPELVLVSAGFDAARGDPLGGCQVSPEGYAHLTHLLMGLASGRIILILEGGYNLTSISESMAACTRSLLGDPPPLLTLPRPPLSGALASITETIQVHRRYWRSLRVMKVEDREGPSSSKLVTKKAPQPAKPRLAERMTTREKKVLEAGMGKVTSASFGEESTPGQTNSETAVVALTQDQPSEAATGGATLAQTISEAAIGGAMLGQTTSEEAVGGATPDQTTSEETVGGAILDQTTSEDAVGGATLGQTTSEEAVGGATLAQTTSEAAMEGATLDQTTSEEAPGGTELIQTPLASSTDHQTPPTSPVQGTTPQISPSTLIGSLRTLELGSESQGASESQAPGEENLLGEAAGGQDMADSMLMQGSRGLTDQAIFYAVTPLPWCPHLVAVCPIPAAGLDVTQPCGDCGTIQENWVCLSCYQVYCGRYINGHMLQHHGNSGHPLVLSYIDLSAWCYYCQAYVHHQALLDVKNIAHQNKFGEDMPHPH
# T3: HDAC-10 (Homo sapiens, UniProt Q969S8)
# T3 sequence (Q969S8 1-669): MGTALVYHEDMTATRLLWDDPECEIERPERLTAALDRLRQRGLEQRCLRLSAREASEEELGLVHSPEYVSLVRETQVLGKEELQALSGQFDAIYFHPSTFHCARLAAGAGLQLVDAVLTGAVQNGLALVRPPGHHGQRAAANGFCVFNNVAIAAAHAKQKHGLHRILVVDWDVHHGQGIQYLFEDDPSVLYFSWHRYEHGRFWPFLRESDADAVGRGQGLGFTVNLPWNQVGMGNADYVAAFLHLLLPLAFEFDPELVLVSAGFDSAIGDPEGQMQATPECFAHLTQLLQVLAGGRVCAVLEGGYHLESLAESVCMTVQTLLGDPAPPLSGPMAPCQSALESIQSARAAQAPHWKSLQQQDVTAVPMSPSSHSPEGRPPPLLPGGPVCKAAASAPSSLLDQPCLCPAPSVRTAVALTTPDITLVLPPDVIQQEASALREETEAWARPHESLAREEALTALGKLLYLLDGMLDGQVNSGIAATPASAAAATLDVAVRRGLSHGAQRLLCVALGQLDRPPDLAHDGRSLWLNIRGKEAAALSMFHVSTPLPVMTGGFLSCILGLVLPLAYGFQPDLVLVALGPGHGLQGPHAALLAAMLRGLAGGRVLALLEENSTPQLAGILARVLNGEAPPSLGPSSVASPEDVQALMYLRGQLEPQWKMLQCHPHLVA
# Experiments:
# HDAC-2 = HDAC-2 (Homo sapiens, UniProt Q92769); assay: in vitro HDAC inhibition, HDAC-2; assay type: biochemical
# HDAC-1 = HDAC-1 (Homo sapiens, UniProt Q13547); assay: in vitro HDAC inhibition, HDAC-1; assay type: biochemical
# HDAC-3 = HDAC-3 (Homo sapiens, UniProt O15379); assay: in vitro HDAC inhibition, HDAC-3; assay type: biochemical
# HDAC-8 = biological target: T1, HDAC-8; assay: in vitro HDAC inhibition, HDAC-8; assay type: biochemical
# HDAC-6 = biological target: T2, HDAC-6; assay: in vitro HDAC inhibition, HDAC-6; assay type: biochemical
# HDAC-10 = biological target: T3, HDAC-10; assay: in vitro HDAC inhibition, HDAC-10; assay type: biochemical
# Jurkat cells [1] = assay: modulation of Compound 23-induced apoptosis in Jurkat cells; conditions: compound 23 10 μM
# Jurkat cells [2] = assay: ratiometric fluorescence calcium imaging, Jurkat cells; assay type: cell-based, human; conditions: for effect on compound 23-stimulated increase in intracellular Ca2+ levels: FIG. 11; for intracellular calcium mobilization / time to rise in intracellular calcium: 10 μM, FIG. 10; for dose dependence of calcium mobilization: FIGS. 12 and 13
# [3] = system: PLC-γ1-deficient Jurkat J.γ1 cells; assay: ratiometric fluorescence calcium imaging, J.γ1 cells; assay type: cell-based, human; conditions: FIG. 14
# Ramos cells [4] = assay: apoptosis in Ramos cells; assay type: cell-based
# wild type Jurkat cells = assay: cytochrome C translocation from mitochondria to cytosol, wild type Jurkat; conditions: HDAC inhibitors 12 or 24 hours, FIG. 9
# Jurkat WT = assay: Apoptosis in Jurkat WT cells
# Ramos cells [5] = assay: ratiometric fluorescence calcium imaging, Ramos cells; assay type: cell-based; conditions: FIG. 15
# [6] = system: P116 (ZAP-70 deficient Jurkat); assay: Apoptosis in P116 cells
# [7] = system: J.RT3-T.5 (TCR-b chain deficient Jurkat); assay: Apoptosis in J.RT3-T.5 cells
# [8] = system: J.g1 (Phospholipase C-g1 deficient Jurkat); assay: Apoptosis in J.g1 cells
# [9] = system: PLC-deficient J.γ1 Jurkat cells; assay: cytochrome C translocation from mitochondria to cytosol, J.γ1 Jurkat; conditions: HDAC inhibitors 12 or 24 hours, FIG. 9
# HDAC-2, sequence (Q92769 whole entry): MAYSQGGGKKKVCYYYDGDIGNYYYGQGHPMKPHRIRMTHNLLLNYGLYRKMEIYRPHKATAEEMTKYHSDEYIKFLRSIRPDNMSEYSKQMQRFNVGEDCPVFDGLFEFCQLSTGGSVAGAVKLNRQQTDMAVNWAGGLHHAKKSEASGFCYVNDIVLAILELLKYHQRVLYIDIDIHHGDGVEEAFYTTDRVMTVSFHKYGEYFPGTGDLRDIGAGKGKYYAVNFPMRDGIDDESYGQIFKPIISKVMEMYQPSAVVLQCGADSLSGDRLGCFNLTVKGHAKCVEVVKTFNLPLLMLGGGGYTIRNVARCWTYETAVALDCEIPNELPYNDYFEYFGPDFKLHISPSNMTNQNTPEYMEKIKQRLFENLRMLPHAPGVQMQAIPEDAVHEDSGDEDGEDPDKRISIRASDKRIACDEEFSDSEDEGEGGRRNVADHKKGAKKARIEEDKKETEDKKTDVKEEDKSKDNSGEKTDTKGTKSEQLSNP
# HDAC-3, sequence (O15379 whole entry): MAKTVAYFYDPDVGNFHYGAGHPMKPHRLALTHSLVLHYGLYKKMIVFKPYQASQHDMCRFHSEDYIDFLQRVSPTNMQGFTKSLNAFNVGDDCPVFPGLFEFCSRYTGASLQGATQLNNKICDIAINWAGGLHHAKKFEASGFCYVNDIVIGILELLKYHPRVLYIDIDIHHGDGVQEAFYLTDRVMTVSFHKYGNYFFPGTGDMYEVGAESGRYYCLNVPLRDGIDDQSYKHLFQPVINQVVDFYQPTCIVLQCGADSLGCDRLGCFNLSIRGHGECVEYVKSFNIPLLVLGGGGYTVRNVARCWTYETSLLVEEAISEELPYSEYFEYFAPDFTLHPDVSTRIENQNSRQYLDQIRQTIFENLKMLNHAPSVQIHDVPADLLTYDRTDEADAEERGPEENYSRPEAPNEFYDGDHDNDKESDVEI
# HDAC-3, sequence (Q9Y618 395-489 partner limits assumed): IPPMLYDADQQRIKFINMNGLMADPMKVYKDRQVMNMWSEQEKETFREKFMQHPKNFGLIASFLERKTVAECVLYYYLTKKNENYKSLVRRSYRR
# HDAC-1, sequence (Q13547 whole entry): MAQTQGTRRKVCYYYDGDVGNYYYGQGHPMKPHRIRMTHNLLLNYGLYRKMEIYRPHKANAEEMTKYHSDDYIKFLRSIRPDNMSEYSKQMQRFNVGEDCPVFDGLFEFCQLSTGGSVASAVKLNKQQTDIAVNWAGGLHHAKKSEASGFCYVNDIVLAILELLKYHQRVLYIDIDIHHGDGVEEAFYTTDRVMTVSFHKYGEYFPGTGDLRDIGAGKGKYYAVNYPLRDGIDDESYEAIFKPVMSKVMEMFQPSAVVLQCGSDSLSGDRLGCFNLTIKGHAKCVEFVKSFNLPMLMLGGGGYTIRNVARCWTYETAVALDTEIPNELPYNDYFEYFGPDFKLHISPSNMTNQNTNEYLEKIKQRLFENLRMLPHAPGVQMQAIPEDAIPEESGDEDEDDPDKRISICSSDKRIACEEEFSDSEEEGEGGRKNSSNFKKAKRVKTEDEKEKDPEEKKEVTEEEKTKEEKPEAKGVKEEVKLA
molecule,measurement,setting,value
"Cn1cc(Cc2ccc(F)cc2)c2cc(C(=O)NO)ccc21 [Compound 33, 1-methyl-3-(4-fluoro-phenylmethyl)-1H-indole-5-carboxylic acid hydroxyamide]",IC50,HDAC-2,23000 nM
same,IC50,HDAC-1,2600 nM
same,IC50,HDAC-3,1500 nM
same,IC50,HDAC-8,24 nM
same,HDAC8 IC50 fold lower than the next lowest HDAC target IC50,"HDAC-8; vs HDACs 1, 2, 3, 6, 10",~15 fold
same,IC50,HDAC-6,360 nM
same,IC50,HDAC-10,5300 nM
COc1ccc2c(c1)CC[C@@H]1[C@@H]2CC[C@]2(C)[C@@H](NCCCCCCN3C(=O)C=CC3=O)CC[C@@H]12 [Compound U-73122],effect on Compound 23-induced apoptosis,Jurkat cells [1]; FIG. 7,inhibited Compound 23-induced apoptosis in a dose-dependent manner
same,effect on compound 23-stimulated increase in intracellular Ca2+ levels,Jurkat cells [2],strongly inhibited
"COc1ccc(Cn2ccc3ccc(C(=O)NO)cc32)cc1 [Compound 23, 1-(4-methoxy-phenylmethyl)-1H-indole-6-carboxylic acid hydroxyamide]",effect on intracellular Ca2+,[3],completely abolished
same,induction of apoptosis,Ramos cells [4],failure to induce apoptosis
same,cytochrome C translocation from mitochondria to cytosol,wild type Jurkat cells,induced translocation
same,Apoptosis at 5 μM,Jurkat WT,43%
same,intracellular calcium mobilization,Jurkat cells [2],sustained rise in intracellular calcium
same,time to rise in intracellular calcium,Jurkat cells [2],approximately 1 minute
same,dose dependence of calcium mobilization,Jurkat cells [2],dose dependent
same,intracellular calcium levels,Ramos cells [5],did not alter resting calcium levels
same,Apoptosis at 5 μM,[6],82%
same,Apoptosis at 5 μM,[7],67%
same,Apoptosis at 5 μM,[8],12%
same,cytochrome C translocation from mitochondria to cytosol,[9],failed to alter the localization
CN(C)Cc1c(C(=O)NCCOc2ccc(C(=O)NO)cc2)oc2ccccc12 [CRA-024781],effect on intracellular Ca2+,[3],completely abolished
same,intracellular calcium mobilization,Jurkat cells [2],sustained rise in intracellular calcium
same,time to rise in intracellular calcium,Jurkat cells [2],approximately 1 minute
same,dose dependence of calcium mobilization,Jurkat cells [2],dose dependent
same,intracellular calcium levels,Ramos cells [5],robust increase
CC(=O)OCOC(=O)CN(CC(=O)OCOC(C)=O)c1ccccc1OCCOc1ccccc1N(CC(=O)OCOC(C)=O)CC(=O)OCOC(C)=O [BAPTA-AM],effect on Compound 23-induced apoptosis,"Jurkat cells [1]; BAPTA-AM 0.5 μM, FIG. 8(B)",diminished apoptosis
COc1ccc2c(c1)CC[C@@H]1[C@@H]2CC[C@]2(C)[C@@H](NCCCCCCN3C(=O)CCC3=O)CC[C@@H]12 [Compound U-73343],effect on Compound 23-induced apoptosis,Jurkat cells [1]; FIG. 7,failed to block
same,effect on compound 23-stimulated increase in intracellular Ca2+ levels,Jurkat cells [2],not
C/C=C(/C)C(=O)O[C@H]1C(C)=C2[C@H]([C@@H]1OC(=O)CCCCCCC)[C@@](C)(OC(C)=O)C[C@H](OC(=O)CCC)[C@@]1(O)[C@H]2OC(=O)[C@@]1(C)O [thapsigargin],effect on Compound 23-induced apoptosis,"Jurkat cells [1]; thapsigargin 0.2 μM, FIG. 8(A)",enhanced apoptosis
"FasL: a pro-apoptotic protein (protein, UniProt P48023 130-281, looked up) Tumor necrosis factor ligand …: QIGHPSPPPEKKELRKVAHLTGKSNSRSMPLEWEDTYGIVLLSGVKYKKGGLVINETGLYFVYSKVYFRGQSCNNLPLSHKVYMRNSKYPQDLVMMEGKMMSYCTTGQMWARSSYLGAVFNLTSADHLYVNVSELSLVNFEESQTFFGLYKL",cytochrome C translocation from mitochondria to cytosol,wild type Jurkat cells,effectively induced translocation
same,cytochrome C translocation from mitochondria to cytosol,[9],effectively induced translocation
